The record followed here is US9856279B2 (AGIOS PHARMACEUTICALS, INC, priority 2011, dated 2018).

Bounds are passed on as bounds.

For one assay, the target named is IDH1 R132H (Homo sapiens, UniProt O75874, R132H). The assay can be described thus: Assay for IDH1 R132H inhibitors (NADPH/aKG, resazurin detection). The assay is classed as biochemical. Particulars: enzyme assay of Example 12; read-out: IDH1R132H IC50. A digest of the protocol: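 Compound added to substrate mix (8 uM NADPH, 2 mM aKG), then enzyme mix (0.2 μg/ml IDH1 R132H); 50 min RT in 20 mM Tris pH 7.5, 150 mM NaCl, 10 mM MgCl2, 0.03% BSA. Resazurin detection mix (30 μM) 5 min RT; resorufin fluorescence Ex544/Em590.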

The next assay relates to HT1080 cells. The assay can be described thus: Cellular assay for IDH1m inhibitors: inhibition of 2-HG production (LC-MS, 48 hours) in HT1080 cells. Particulars: Homo sapiens, HT-1080; inhibition of 2-HG production, HT1080 cells; read-out: HT1080 IC50. The class given is cell-based. As to the method:
Cells (e.g., HT1080 or U87MG) and are grown in T125 flasks in DMEM containing 10% FBS, 1× penicillin/streptomycin and 500 ug/mL G418. They are harvested by trypsin and seeded into 96 well white bottom plates at a density of 5000 cell/well in 100 ul/well in DMEM with 10% FBS. No cells are plates in columns 1 and 12. Cells are incubated overnight at 37° C. in 5% CO2. The next day compounds are made up at 2× concentration and 100 ul are added to each cell well. The final concentration of DMSO is 0.2% and the DMSO control wells are plated in row G. The plates are then placed in the incubator for 48 hours. At 48 hours, 100 μl of media is removed from each well and analyzed by LC-MS for 2-HG concentrations. The cell plate is placed back in the incubator for another 24 hours. At 72 hours post compound addition, 10 mL/plate of Promega Cell Titer Glo reagent is thawed and mixed. The cell plate is removed from the incubator and allowed to equilibrate to room temperature. Then 100 ul of reagent is added to each well of media. The cell plate is then placed on an orbital shaker for 10 minutes and then allowed to sit at room temperature for 20 minutes. The plate is then read for luminescence with an integration time of 500 ms.
The IC50 for inhibition of 2-HG production (concentration of test compound to reduce 2HG production by 50% compared to control) in these two cell lines for various compounds of formula I is set forth in Table 4 above.

Chain of IDH1 R132H (O75874 whole entry R132H): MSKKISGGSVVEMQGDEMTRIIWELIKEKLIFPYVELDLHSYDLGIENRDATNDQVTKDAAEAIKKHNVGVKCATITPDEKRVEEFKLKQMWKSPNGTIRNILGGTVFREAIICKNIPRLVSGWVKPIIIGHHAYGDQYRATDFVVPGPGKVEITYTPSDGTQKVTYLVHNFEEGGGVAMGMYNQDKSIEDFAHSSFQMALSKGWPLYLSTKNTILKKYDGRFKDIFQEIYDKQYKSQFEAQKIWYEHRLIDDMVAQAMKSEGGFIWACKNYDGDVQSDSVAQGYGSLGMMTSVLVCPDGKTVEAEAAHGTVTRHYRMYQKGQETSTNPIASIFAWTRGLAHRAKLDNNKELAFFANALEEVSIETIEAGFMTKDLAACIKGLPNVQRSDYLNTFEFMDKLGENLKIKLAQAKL

In the case of `COCCC(=O)N1CCN(c2nc(C3CC3)c(Nc3ccnc(Cl)c3)cc2C#N)C[C@H]1C1CC1` [Compound 679, (R)-5-((2-chloropyridin-4-yl)amino)-6-cyclopropyl-2-(3-cyclopropyl-4-(3-methoxypropanoyl)piperazin-1-yl)nicotinonitrile], the IC50 on IDH1 R132H and in the assay with HT1080 cells was less than 500 nM in each case.

Regarding `N#Cc1cc(-c2cccc3c(C#N)nccc23)c(C2CC2)nc1N1CCN(C(=O)C2CC2)[C@H](C2CC2)C1` [Compound 511, (R)-5-(5-cyano-6-(4-(cyclopropanecarbonyl)-3-cyclopropylpiperazin-1-yl)-2-cyclopropylpyridin-3-yl)isoquinoline-1-carbonitrile], the 50% inhibitory concentration (IC50) was less than 500 nM at IDH1 R132H and 500 to 1000 nM in the assay on HT1080 cells.

Consider `Cc1cc2c(-c3cc(C#N)c(N4CCN(C(=O)CCO)[C@H](C)C4)nc3C3CC3)cccc2cn1` [Compound 588, (R)-6-cyclopropyl-2-(4-(3-hydroxypropanoyl)-3-methylpiperazin-1-yl)-5-(3-methylisoquinolin-5-yl)nicotinonitrile], for which the IC50 at IDH1 R132H and with HT1080 cells was less than 500 nM in each case.

For the compound `N#Cc1ccc2c(-c3cc(C#N)c(N4CCN(C(=O)C5CC5)[C@H](C5CC5)C4)nc3C3CC3)cccc2n1` [Compound 563, (R)-5-(5-cyano-6-(4-(cyclopropanecarbonyl)-3-cyclopropylpiperazin-1-yl)-2-cyclopropylpyridin-3-yl)quinoline-2-carbonitrile], the IC50 at IDH1 R132H and with HT1080 cells was less than 500 nM each time.

Take `CCO[C@@H]1C[C@@H]1C(=O)N1CCN(c2nc(C3CC3)c(-c3cccc4cnccc34)cc2C#N)C[C@H]1C` [Compound 517, 6-cyclopropyl-2-((R)-4-((1S,2R)-2-ethoxycyclopropanecarbonyl)-3-methylpiperazin-1-yl)-5-(isoquinolin-5-yl)nicotinonitrile]: the 50% inhibitory concentration (IC50) on IDH1 R132H was less than 500 nM; in the assay with HT1080 cells it was 500 to 1000 nM.

Take `C=Cc1cc(-c2cc(C#N)c(N3CCN(C(=O)CCO)[C@H](C4CC4)C3)nc2C2CC2)c2ccccc2n1` [Compound 571, (R)-6-cyclopropyl-2-(3-cyclopropyl-4-(3-hydroxypropanoyl)piperazin-1-yl)-5-(2-vinylquinolin-4-yl)nicotinonitrile]: the half-maximal inhibitory concentration (IC50) at IDH1 R132H and with HT1080 cells was less than 500 nM throughout.

For the compound `C=Cc1cc(-c2cc(C#N)c(N3CCN(C(=O)CCC(OC)OC)[C@H](C)C3)nc2C2CC2)ccn1` [Compound 606, (R)-2-cyclopropyl-6-(4-(4,4-dimethoxybutanoyl)-3-methylpiperazin-1-yl)-2′-vinyl-[3,4′-bipyridine]-5-carbonitrile], the IC50 at IDH1 R132H and in the assay on HT1080 cells was less than 500 nM each time.

With `C=Cc1ccc2c(-c3cc(C#N)c(N4CCN(C(=O)CCOC)[C@H](C5CC5)C4)nc3C3CC3)cccc2n1` [Compound 570, (R)-6-cyclopropyl-2-(3-cyclopropyl-4-(3-methoxypropanoyl)piperazin-1-yl)-5-(2-vinylquinolin-5-yl)nicotinonitrile], the 50% inhibitory concentration (IC50) at IDH1 R132H and in the assay with HT1080 cells was less than 500 nM each time.

`Cc1cc(-c2cc(C#N)c(N3CCN(C(=O)C4CC4)[C@H](C4CC4)C3)nc2C2CC2)c2ccncc2n1` [Compound 553, (R)-2-(4-(cyclopropanecarbonyl)-3-cyclopropylpiperazin-1-yl)-6-cyclopropyl-5-(2-methyl-1,7-naphthyridin-4-yl)nicotinonitrile]: the IC50 on IDH1 R132H and in the assay on HT1080 cells was less than 500 nM throughout.

In the case of `C=Cc1cnc2c(/C=C/c3cnc4c(-c5cc(C#N)c(N6CCN(C(=O)CCOC)[C@H](C)C6)nc5C5CC5)cccc4n3)cccc2n1` [Compound 604, (R,E)-6-cyclopropyl-2-(4-(3-methoxypropanoyl)-3-methylpiperazin-1-yl)-5-(2-(2-(2-vinylquinoxalin-5-yl)vinyl)quinoxalin-5-yl)nicotinonitrile], the half-inhibitory concentration (IC50) on IDH1 R132H and in the assay with HT1080 cells was less than 500 nM in each case.
